# Test results from patent publication US20260242392A1, “ARYL TRICYCLIC STING AGONISTS AND USE THEREOF” (SHENZHEN GENUINE BIOTECHNOLOGY CO., LTD., priority 2023, published 2026).
# Test system: not listed separately
# Test: Pharmacokinetic (PK) study in ICR mice, IV and PO
# Conditions: ICR, mouse, plasma, iv, 2 mg/kg
# Protocol: The doses for IV and PO were 2 mg/kg and 5 mg/kg, respectively. Blood was collected at different time points after IV and PO administration and placed in heparinized tubes. Plasma was separated and frozen in a −20° C. refrigerator. Plasma was processed and then analyzed by LCMS/MS. Pharmacokinetic parameters of drug administration were calculated using a non-compartmental model in WinNonlin 8.2 software.
Structure (SMILES),AUC(0-t),Vd,clearance,half-life
"COc1cc2sc(C(=O)CCC(=O)O)cc2c2ncoc12 [Compound 1, 4-(4-methoxythieno[2′,3′:5,6]benzo[1,2-d]oxazol-7-yl)-4-oxobutanoic acid]",660 ng·h/mL,0.76 L/kg,50.3 mL/min/kg,0.658 h
COc1cc2sc(C(=O)C[C@H](C)C(=O)O)cc2c2c(F)c(C)oc12 [Compound 59],5500 ng·h/mL,0.191 L/kg,6.03 mL/min/kg,2.35 h
"COc1cc2sc(C(=O)CCC(=O)O)cc2c2nc(C)oc12 [Example 6, 4-(4-methoxy-2-methylthieno[2′,3′:5,6]benzo[1,2-d]oxazol-7-yl)-4-oxobutanoic acid]",4240 ng·h/mL,0.264 L/kg,7.85 mL/min/kg,1.11 h
COc1cc2sc(C(=O)C[C@H](C)C(=O)O)cc2c2cc(C)oc12 [Example 32],3700 ng·h/mL,0.252 L/kg,8.98 mL/min/kg,0.821 h

# Same assay, conditions: ICR, mouse, plasma, po, 5 mg/kg
Structure (SMILES),AUC(0-t),Cmax,bioavailability,half-life
"COc1cc2sc(C(=O)CCC(=O)O)cc2c2ncoc12 [Compound 1, 4-(4-methoxythieno[2′,3′:5,6]benzo[1,2-d]oxazol-7-yl)-4-oxobutanoic acid]",757 ng·h/mL,1270 ng/mL,47%,1.56 h
COc1cc2sc(C(=O)C[C@H](C)C(=O)O)cc2c2c(F)c(C)oc12 [Compound 59],5180 ng·h/mL,7700 ng/mL,38%,1.1 h
"COc1cc2sc(C(=O)CCC(=O)O)cc2c2nc(C)oc12 [Example 6, 4-(4-methoxy-2-methylthieno[2′,3′:5,6]benzo[1,2-d]oxazol-7-yl)-4-oxobutanoic acid]",3680 ng·h/mL,4280 ng/mL,42.5%,2.64 h
COc1cc2sc(C(=O)C[C@H](C)C(=O)O)cc2c2cc(C)oc12 [Example 32],3450 ng·h/mL,5360 ng/mL,37.4%,0.925 h

# Same assay, conditions: mouse PK, injection 2 mg/kg and oral 5 mg/kg
Structure (SMILES),clearance in vivo compared to MAS-2,exposure in vivo compared to MAS-2
COc1cc2sc(C(=O)C[C@H](C)C(=O)O)cc2c2c(F)c(C)oc12 [Compound 59],lower clearance,higher exposure

# Molecular target: T1, Sting-HAQ (Homo sapiens, UniProt Q86WV6, G230A/H232R/R293Q/R71H)
# T1 construct: host or cells: HEK293-HAQ Luc reporter cell line
# Test: HEK293-HAQ Luc reporter gene assay (Steady-Glo luciferase)
# Type: cell-based
# Conditions: 24 h incubation; read-out: HEK293-HAQ Luc Report Assay (24 h) EC50
# Protocol: Test Principle: The HEK293-HAQ Luc reporter cell line utilizes the chemiluminescent reaction property of luciferase binding to its substrate beetle luciferin. The regulatory elements of the Sting-HAQ gene transcription are cloned upstream/downstream of the firefly luciferase gene to construct a luciferase recombinant plasmid. The recombinant plasmid is then transfected into HEK293 cells. After treatment with compounds, the cells are lysed, and the luciferase activity is measured using the Steady-Glo® detection system (Cat #E2550) manufactured by Promega Corporation. The effect of compounds on the Sting-HAQ regulatory elements is determined based on the level of luciferase activity. The Steady Glo® Luciferase Assay System enables high-throughput evaluation of the degree of activation of reporter cell lines by compounds through the activity of luciferase in mammalian cells, and provides long-term stable luminescence when used with reporter cell lines. The detection system can sustain a signal half-life of more than 5 hours in the test cell culture medium, enabling uniform measurement without sample pretreatment.
# Test Method: Complete medium (DMEM+10% FBS+1% P/S) was prepared. The Hek293-HAQ Luc reporter cell line was resuscitated and passaged twice. Cells in logarithmic growth phase were collected by centrifugation, counted, and resuspended to an appropriate concentration. The cell suspension was seeded into a 96-well plate at a density of 20000 cells/well, with 100 µL of the cell suspension added per well. Test compounds were prepared into stock solutions with DMSO, and serially diluted 3-fold with DMSO starting from the highest concentration of 100 mM to obtain 9 concentration gradients. The test compounds were diluted 47.62-fold with culture medium, and 5 μL of each dilution was added to the 96-well plate containing 100 μL of cells. To Min control wells were added 5 μL of DMSO-cell culture medium mixture (with a final DMSO concentration of 0.1%), while Max control wells received 5 μL of a positive reference compound. The plate was incubated at 37° C. in an incubator with 5% carbon dioxide and relative humidity above 90% for 24 h. Subsequently, 75 μL/well of […] was added to terminate the reaction. After shaking at 305 rpm for 10 min, the plates were detected on Envision. The […] value RLU of each well was read, and the activation rate was calculated according to the formula: Activation %=(Sample−Ave_L)/(Ave_H−Ave_L)×100, where Ave_L: RLU Min (0.1% DMSO), Ave_H: RLU Max (positive reference compound). The activation rate, Activation % (Y), corresponding to each concentration (X), was entered in EXCEL. The half-maximal effective concentration EC50 value of each compound was calculated according to the built-in four-parameter fitting formula Y=Bottom+(Top−Bottom)/(1+10^((LogEC50−X)*HillSlope)) using the XLfit plug-in.
# T1 sequence (Q86WV6 whole entry R71H/G230A/H232R/R293Q): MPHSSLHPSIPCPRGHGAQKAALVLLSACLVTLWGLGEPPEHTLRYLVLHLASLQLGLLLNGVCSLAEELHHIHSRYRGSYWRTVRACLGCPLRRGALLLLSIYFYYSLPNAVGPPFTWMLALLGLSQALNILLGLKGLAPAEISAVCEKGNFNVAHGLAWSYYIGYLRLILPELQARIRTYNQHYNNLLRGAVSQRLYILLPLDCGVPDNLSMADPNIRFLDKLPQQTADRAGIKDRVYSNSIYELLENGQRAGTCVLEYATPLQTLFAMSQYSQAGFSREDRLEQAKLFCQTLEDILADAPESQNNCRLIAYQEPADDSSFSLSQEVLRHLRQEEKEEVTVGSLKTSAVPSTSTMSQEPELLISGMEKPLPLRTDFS
row,Structure (SMILES),EC50
1,O=C(O)CCC(=O)c1cc2c(ccc3[nH]ncc32)s1,> 100 µM
2,C[Si](C)(C)CCOCn1ncc2c3cc(C(=O)CCC(=O)O)sc3ccc21,> 100 µM
3,C[Si](C)(C)CCOCn1cc2c(ccc3sc(C(=O)CCC(=O)O)cc32)n1,> 100 µM
4,Cn1ncc2c3cc(C(=O)CCC(=O)O)sc3ccc21,> 100 µM
5,Cn1cc2c(ccc3sc(C(=O)CCC(=O)O)cc32)n1,41.8 µM
6,COc1cc2sc(C(=O)CCC(=O)O)cc2c2c1OCC2,7.87 µM
7,COc1cc2sc(C(=O)CCC(=O)O)cc2c2c1OCCO2,> 100 µM
8,COc1cc2sc(C(=O)CCC(=O)O)cc2c2nc(C(C)C)oc12,> 100 µM
9,CCc1nc2c(o1)c(OC)cc1sc(C(=O)CCC(=O)O)cc12,36 µM
10,COc1cc2sc(C(=O)CCC(=O)O)c(C)c2c2ncoc12,58 µM
11,COc1cc2sc(C(=O)CC(C)C(=O)O)c(C)c2c2ncoc12 (stereo not shown),92 µM
12,COc1cc2sc(C(=O)CCC(=O)O)cc2c2nc(C3CC3)oc12,90.7 µM
13,COc1cc2sc(C(=O)CCC(=O)O)cc2c2ccoc12,2.52 µM
14,COc1cc2sc(C(=O)CC(C)C(=O)O)c(C)c2c2nc(N)oc12 (stereo not shown),> 100 µM
15,COc1cc2sc(C(=O)CCC(=O)O)c(C)c2c2ccoc12,29.8 µM
16,COc1cc2sc(C(=O)CCC(=O)O)cc2c2cnn(C)c12,> 100 µM
17,COc1cc2sc(C(=O)CCC(=O)O)cc2c2cc(C)oc12,1.04 µM
18,COc1cc2sc(C(=O)CC(C)C(=O)O)cc2c2ccoc12 (stereo not shown),2.2 µM
19,COc1cc2sc(C(=O)CCC(=O)O)c(C)c2c2cc(C)oc12,19 µM
20,COc1cc2sc(C(=O)CC(C)C(=O)O)cc2c2cc(C)oc12 (stereo not shown),1.2 µM
21,COc1cc2sc(C(=O)CCC(=O)O)c(C)c2c2nc(N)oc12,> 100 µM

row,Structure (SMILES),EC50
1,CCC(CC(=O)c1cc2c(cc(OC)c3ocnc32)s1)C(=O)O (stereo not shown),0.308 µM
2,COc1cc2sc(C(=O)CCC(=O)O)cc2c2nc[nH]c12,> 100 µM
3,COc1cc2sc(C(=O)CCC(=O)O)cc2c2c1ncn2C,> 100 µM
4,COc1cc2sc(C(=O)CCC(=O)O)cc2c2ncn(C)c12,> 100 µM
5,COc1cc2sc(C(=O)CCC(=O)O)cc2c2cn(C)nc12,49 µM
6,COc1cc2sc(C(=O)CCC(=O)O)cc2c2cnoc12,> 100 µM
7,COc1cc2sc(C(=O)CCC(=O)O)cc2c2nc(N)oc12,> 100 µM
8,COc1cc2sc(C(=O)CCC(=O)O)cc2c2ccn(C)c12,> 100 µM
9,COc1cc2sc(C(=O)CC(C)C(=O)O)cc2c2nc(N)oc12 (stereo not shown),> 100 µM
10,COc1cc2sc(C(=O)C[C@@H](C)C(=O)O)cc2c2ncoc12,5.81 µM
11,COc1cc2sc(C(=O)CCC(=O)O)cc2c2c1CCC2,> 100 µM
12,COc1cc2sc(C(=O)CCC(=O)O)cc2c2ocnc12,2.5 µM
13,COc1cc2sc(C(=O)CCC(=O)O)cc2c2cc(F)oc12,0.792 µM
14,CCC(CC(=O)c1cc2c(cc(OC)c3occc32)s1)C(=O)O (stereo not shown),0.979 µM
15,CCC(CC(=O)c1cc2c(cc(OC)c3oc(C)nc32)s1)C(=O)O (stereo not shown),0.326 µM
16,CCC(CC(=O)c1cc2c(cc(OC)c3oc(C)cc32)s1)C(=O)O (stereo not shown),0.565 µM
17,COc1cc2sc(C(=O)CCC(=O)O)cc2c2ccsc12,10.7 µM
18,COc1cc2sc(C(=O)CC(C)C(=O)O)nc2c2nc(C)oc12 (stereo not shown),3.32 µM
19,COc1cc2sc(C(=O)CCC(=O)O)nc2c2nc(C)oc12,18 µM
20,COc1cc2sc(C(=O)C(C)CC(=O)O)nc2c2nc(C)oc12 (stereo not shown),59.9 µM
21,CC[C@H](CC(=O)c1cc2c(cc(OC)c3oc(C)cc32)s1)C(=O)O,4.46 µM

row,Structure (SMILES),EC50
1,CC[C@@H](CC(=O)c1cc2c(cc(OC)c3oc(C)cc32)s1)C(=O)O,0.24 µM
2,COc1cc2sc(C(=O)CC(C)C(=O)O)cc2c2cc(F)oc12 (stereo not shown),0.57 µM
3,COc1cc2sc(C(=O)CC(C)C(=O)O)nc2c2cc(C)oc12 (stereo not shown),2.34 µM
4,COc1cc2sc(C(=O)C[C@H](C)C(=O)O)nc2c2nc(C)oc12,4.18 µM
5,COc1cc2sc(C(=O)C[C@@H](C)C(=O)O)nc2c2nc(C)oc12,67.7 µM
6,CCC(CC(=O)c1cc2c(cc(OC)c3oc(F)cc32)s1)C(=O)O (stereo not shown),0.823 µM
7,COc1cc2sc(C(=O)C[C@@H](C)C(=O)O)cc2c2cc(F)oc12,6.87 µM
8,CC[C@@H](CC(=O)c1cc2c(cc(OC)c3oc(F)cc32)s1)C(=O)O,0.352 µM
9,CC[C@H](CC(=O)c1cc2c(cc(OC)c3oc(F)cc32)s1)C(=O)O,4.1 µM
10,[2H]c1c(C)oc2c(OC)cc3sc(C(=O)C[C@H](C)C(=O)O)cc3c12,0.313 µM
11,COc1cc2sc(C(=O)C[C@@H](C)C(=O)O)cc2c2c(F)c(C)oc12,1.51 µM
12,[2H]C([2H])([2H])Oc1cc2sc(C(=O)C[C@H](C)C(=O)O)cc2c2cc(F)oc12,0.263 µM
13,C[C@@H](CC(=O)c1cc2c(cc(O)c3oc(F)cc32)s1)C(=O)O,29.3 µM
14,COc1cc2sc(C(=O)CCC(=O)O)cc2c2ncoc12 [drawing 622],1.23 µM
15,COc1cc2sc(C(=O)CCC(=O)O)cc2c2nc(C)oc12 [drawing 626],1.58 µM
16,COc1cc2sc(C(=O)CC(C)C(=O)O)cc2c2ncoc12 (stereo not shown) [drawing 631],1.12 µM
17,COc1cc2sc(C(=O)C[C@H](C)C(=O)O)cc2c2ncoc12 [drawing 651],0.16 µM
18,CC[C@@H](CC(=O)c1cc2c(cc(OC)c3ocnc32)s1)C(=O)O [drawing 659],0.302 µM
19,COc1cc2sc(C(=O)C[C@H](C)C(=O)O)cc2c2cc(C)oc12 [drawing 660],0.341 µM
20,COc1cc2sc(C(=O)C[C@H](C)C(=O)O)cc2c2cc(F)oc12 [drawing 673],0.465 µM
21,COc1cc2sc(C(=O)C[C@H](C)C(=O)O)cc2c2c(F)c(C)oc12 [drawing 678],0.19 µM
